Read-outs that look alike come from different tables or passages of the source. Ends that are not written are not given here.
Experiments:
[1] = system: spontaneously hypertensive rats (SHRs); test: Change of SBP and DBP in SHRs by tail-cuff method after single oral administration; format: in vivo, rat; details: single oral dose 1 mg/kg BW
Description: Therefore, the antihypertensive activity of the aforementioned supernatant powder of the fermented dairy product were measured in SHRs and normotensive rats (Wistar-Kyoto rats, WKYs) to evaluate its potential applications to functional food for preventing hypertension. The male SHRs and male WKYs used in the present and following examples were purchased from National Laboratory Animal Center (Taipei, Taiwan) and fed with laboratory chow (Rodent laboratory chow 5001, Purina Co., USA). Blood pressures including SBP and DBP of 8- to 18-wk-old SHRs (body weight, 330-360 g) and 8- to 18-wk-old WKYs (body weight, 350-380 g) were measured by the tail-cuff method employing a tail-cuff detection system (Softron BP16; Softron, Tokyo, Japan). The antihypertensive activities of the test samples were evaluated by measuring the changes in SBP and DBP of SHRs and WKYs during 0-10 h after oral administration of respective samples.

[2] = system: spontaneously hypertensive rats (SHRs); details: cited from earlier work
[3] = format: in vitro ADME
Description: Briefly, the peptide was digested with a pepsin solution (pH 2.5) (EC 3.4.23.1; 1:10000; Sigma, USA) for 1.5 h at 37° C., followed by digestion with Corolase PP (pH 7.5) (pancreatic protease; Rohm, Darmstadt, German) for 2.5 h at 37° C. To remove the enzyme added, the digested peptide solution was filtered through a 3 kDa cut-off centrifugal filter (Microcon YM-3, 3 kDa NMWL, Millipore Co., USA) by centrifugation at 1,000×g for 10 min. The filtrate was then used in the analysis for peptide fragments by MALDI-TOF-MS (matrix-assisted laser desorption ionization-time of flight mass spectrometry).

## KVLPVP [known peptide from casein hydrolysate (Maeno et al., 1996), synthetic comparator]
[1]; at 2 h
  maximal decrease in SBP: 27.8±3.3 mmHg
[1]; at 5 h
  maximal decrease in DBP: 17.5±4.2 mmHg

## KVLPVPQ [known peptide from casein hydrolysate (Maeno et al., 1996), synthetic comparator]
[2]; single oral administration of 2 mg/kg BW, at 6 h (Maeno et al., 1996)
  decrease of SBP: 31.5±5.6 mmHg
[1]; at 3 h
  maximal decrease in SBP: 29.2±4.0 mmHg
[1]; at 4 h
  maximal DBP decrease: 14.4±3.2 mmHg

## VLSLSQPKVLPVPQKAVPQ [Val-Leu-Ser-Leu-Ser-Gln-Pro-Lys-Val-Leu-Pro-Val-Pro-Gln-Lys-Ala-Val-Pro-Gln]
[3]
  peptide fragments after simulated gastro-intestinal digestion: did not contain Lys-Val-Leu-Pro-Val-Pro (SEQ ID NO: 3) or Lys-Val-Leu-Pro-Val-Pro-Gln (SEQ ID NO: 4)

## Val-Pro-Pro (VPP; Peptide derived from casein) [tripeptide derived from β-casein, synthesized and tested as positive control]
[2]; dose 1.6 mg/kg BW, at 6 h after oral administration (Nakamura et al., 1995)
  decrease of SBP: 20 mmHg
[1]; at 4 h
  maximal DBP decrease: 18.0±2.1 mmHg
  maximal SBP decrease: 26.3±3.2 mmHg

— patent US7763281B2, “Antihypertensive peptide and use thereof” (Da-Yeh University, priority 2007, dated 2010)
